Where “and” joins values, the source holds several entries; their conditions need not be identical. Equal entries are not always repeated. Where two headings read alike, the source gives them in different places. Values belong to the molecule of their own block, whether it stands above or below them. Where a SMILES comes first, the peptide text is derived from it. Bridges are numbered along the chain shown (N, C = ends). Roman numbers before positions name the chains, in order. Triazole bridges read from a SMILES are 1,4-linked. [ ]: non-standard residue; d: D form. Lys(N3) = [N-]=[N+]=NCCCC[C@H](N)C(=O)O; Az4 = C-terminal azide group; dPra = C#CC[C@@H](N)C(=O)O; code X = not defined here
What was measured:
[1] = plasma protein binding by equilibrium dialysis; format: in vitro ADME; conditions: 10 μM, 37° C. overnight
Experimental: Equilibrium dialysis techniques were used to separate the fraction of unbound test compound from the fraction that is bound to protein.
Assays were carried out in a 96-well format in a dialysis block constructed from Teflon. The protein matrix was spiked with the test compound at 10 μM (n=2) with a final DMSO concentration of 1% (v/v). The dialysate compartment was loaded with 150 μL phosphate buffer (pH 7.5) and the sample side was loaded with equal volume of the spiked protein matrix. The dialysis plate was then sealed and incubated at 37° C. overnight (18±2 hours). After the incubation, samples were taken from each compartment, diluted with the phosphate buffer followed by addition of acetonitrile and centrifugation. The supernatants were then used for HPLC-MS/MS analysis. A control sample (n=2) was prepared from the spiked protein matrix in the same manner as the assay samples (without dialysis). This control sample served as the basis for the recovery determination. Samples were analyzed by HPLC-MS/MS using selected reaction monitoring. The HPLC conditions consisted of a binary LC pump with autosampler, a C18 column (2×20 mm), and gradient elution. The percent bound to proteins and the recovery were calculated as follows:
[formula] […] The recovery determination served as an indicator of reliability of the calculated protein binding value.

[2] = tested on: Human umbilical vein endothelial cells (HUVECs); assay: inhibition of HUVEC proliferation; format: cell-based; conditions: 48 h, read-out: IC50 (antagonist)
Experimental: HUVECs were cultured in M199 medium (pH 7.4) in 5% CO2 at 37° C. for 18 hours. Test compound and/or vehicle were incubated with cells (1.1×10^5/mL) in the presence of heparin (10 μg/mL) and 0.5% FBS at 37° C. for 48 hours. Capture agents were screened at 10, 1, 0.1, 0.01 and 0.001 μM and in duplicate. […] Subsequently, the reagent Calcein AM dye (20 μg/ml) was added for an additional 50 minute incubation period. Fluorescence intensity was read on SpectroFluor Plus plate reader.

[3] = plasma concentrations and pharmacokinetics of VEGF-PCC after a single IV or IP dose in mice, LC-MS/MS; format: in vivo, mouse; conditions: for Plasma concentration: individual animal; for C0: iv
Description: Test article: VEGF-PCC (IN-VT-1001 Triligand) (PCC monomer) Ac-[…]-Tz4-lfrew-Tz4-eeird (SEQ ID NO: 71). The underlined region inclusive of the Cys residues is cyclized by a disulfide bond, Ac=N-terminal acetylation, and Tz4=1,4-disubstituted 1,2,3-triazole.
The LC-MS/MS system for analysis was comprised of an Agilent 1200 high performance liquid chromatography (HPLC) and a 5500 Qtrap mass spectrometer (Applied Biosystems by Life Technologies, Carlsbad, Calif.).
Concentrations of VEGF-PCC in mouse plasma were determined using a non-validated LC MS/MS assay with Angiotensin I as the internal standard following a solid phase extraction method. Individual VEGF-PCC calibration and QC standards were prepared from the respective intermediate stock solutions by addition to naïve mouse plasma. The target working range of the calibration curve was 50 to 5,000 ng/mL in plasma and the target concentrations of the QC standards were 150 to 3,750 ng/mL in plasma for VEGF-PCC.
Mice received a single IV dose of VEGF-PCC at 1 mg/kg. A summary of the plasma concentrations for individual animals is shown in Table A. Plasma pharmacokinetic parameters are listed in Table 9.
Mice received a single IP dose of VEGF-PCC at 5 mg/kg. A summary of the plasma concentrations for individual animals is shown in Table B. Plasma pharmacokinetic parameters are listed in Table 9.

[4] = target: T1, human VEGF165 binding to VEGFR2 (KDR) (Homo sapiens, UniProt P15692); assay: competitive ELISA, inhibition of VEGF165 binding to VEGFR2; conditions: concentrations tested <50 μM
T1 construct: biotin (chemical labelling, Sulfo-NHS-LC-biotin); purchased R&D Systems (partner VEGFR2-Fc only)
T1 sequence (P15692 27-191 isoform P15692-4): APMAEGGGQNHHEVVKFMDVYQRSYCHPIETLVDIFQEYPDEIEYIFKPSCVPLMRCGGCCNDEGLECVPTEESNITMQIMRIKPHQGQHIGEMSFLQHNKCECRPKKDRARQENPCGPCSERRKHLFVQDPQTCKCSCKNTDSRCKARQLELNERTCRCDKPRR
Experimental: The solutions from the tubes were then transferred to the ELISA plates and incubated for 5 minutes. […] Using an excitation wavelength of 535 nm, fluorescent emission at 595 nm was recorded by Beckman Coulter DTX880 photometer (Brea, Calif.) as a function of capture agent concentration. The titration curves were fit using a four-parameter regression curve fitting program (Origin 8.5, Northampton, Mass.). Concentrations of peptides corresponding to the midpoint absorbance of the titration curve were calculated and used as the IC50 values.

[5] = in vivo, mouse plasma, IP, 5 mg/kg
[6] = in vivo, mouse plasma, IV, 1 mg/kg

plasma protein binding [1]: higher levels of plasma protein binding
Molecule: C=C(NC(=O)[C@@H]1CCCN1C(=O)[C@H](CCC(=O)O)NC(=O)[C@@H](C)C(C)C)C(=O)N[C@@H]1CSSCC(C(=O)N[C@@H](Cc2ccccc2)C(=O)NC(CCC(=O)O)C(=O)NC(CCCN)C(=O)N[C@@H](CC(C)C)C(=O)NC(CCCCn2cc(CC(N)C(=O)NC(Cc3ccccc3)C(=O)N[C@H](CO)C(=O)N[C@H](CCCNC(=N)N)C(=O)NC(CCCCN)C(=O)N[C@@H](C(=O)NC(CCC(=O)O)C(N)=O)C(C)O)nn2)C(=O)O)NC(=O)[C@H](CCC(=O)O)NC(=O)[C@H](Cc2c[nH]c3ccccc23)NC(=O)[C@H](CCC(=O)O)NC(=O)[C@H](Cc2c[nH]c3ccccc23)NC(=O)[C@H](CCSC)NC(=O)[C@H](C(C)C)NC(=O)[C@H](Cc2cnc[nH]2)NC(=O)C([C@@H](C)CC)NC(=O)[C@H](CC(=O)O)NC1=O (stereo partly shown) [Biligand 3]

Molecule: Cc1cc(C)c(/C=C2\C(=O)Nc3ccccc32)[nH]1 [SU5416]
IC50 [2]: 48 nM

AUC(0-inf) [3, 5]: 32200 ng·h/mL | AUC(0-t) [3, 5]: 31500 ng·h/mL | Cmax [3, 5]: 19800 ng/mL | Tmax [3, 5]: 30 min | AUC(0-inf) [3, 6]: 6490 ng·h/mL | AUC(0-t) [3, 6]: 6070 ng·h/mL | clearance [3, 6]: 2.57 mL/min/kg | half-life [3, 6]: 35.9 min | Vd ([3]; in vivo, mouse plasma, IV, 1 mg/kg, read-out: Vss): 0.0967 L/kg | Plasma concentration ([3]; IP 5 mg/kg, 30 minutes postdose, listed as IN-VT-1001, 5 mg/kg): 19400 ng/mL and 20200 ng/mL and BLQ | Plasma concentration ([3]; IP 5 mg/kg, 120 minutes postdose, listed as IN-VT-1001, 5 mg/kg): BLQ and 4730 ng/mL and 3640 ng/mL | Plasma concentration ([3]; IP 5 mg/kg, 240 minutes postdose, listed as IN-VT-1001, 5 mg/kg): 259 ng/mL and 807 ng/mL and BLQ | Plasma concentration ([3]; IP 5 mg/kg, 360 minutes postdose, listed as IN-VT-1001, 5 mg/kg): 390 ng/mL and BLQ (2×) | Plasma concentration ([3]; IP 5 mg/kg, 480 minutes postdose): BLQ | Plasma concentration ([3]; IP 5 mg/kg, 1440 minutes postdose): BLQ | Plasma concentration ([3]; IV 1 mg/kg, 10 minutes postdose, listed as IN-VT-1001, 1 mg/kg): 7220 ng/mL and 7550 ng/mL and 6110 ng/mL | Plasma concentration ([3]; IV 1 mg/kg, 30 minutes postdose, listed as IN-VT-1001, 1 mg/kg): 2170 ng/mL and 2210 ng/mL and 3420 ng/mL | Plasma concentration ([3]; IV 1 mg/kg, 60 minutes postdose, listed as IN-VT-1001, 1 mg/kg): 1840 ng/mL and 2380 ng/mL and 1870 ng/mL | Plasma concentration ([3]; IV 1 mg/kg, 120 minutes postdose, listed as IN-VT-1001, 1 mg/kg): 551 ng/mL and 400 ng/mL and 514 ng/mL | Plasma concentration ([3]; IV 1 mg/kg, 240 minutes postdose): BLQ | Plasma concentration ([3]; IV 1 mg/kg, 360 minutes postdose): BLQ | Plasma concentration ([3]; IV 1 mg/kg, 1440 minutes postdose): BLQ | Mean plasma concentration ([3]; mean, IP 5 mg/kg, 480 minutes postdose): 0.00 ng/mL | Mean plasma concentration ([3]; mean, IP 5 mg/kg, 1440 minutes postdose): 0.00 ng/mL | Mean plasma concentration ([3]; mean, IV 1 mg/kg, 240 minutes postdose): 0.00 ng/mL | Mean plasma concentration ([3]; mean, IV 1 mg/kg, 360 minutes postdose): 0.00 ng/mL | Mean plasma concentration ([3]; mean, IV 1 mg/kg, 1440 minutes postdose): 0.00 ng/mL | AUC % Ext ([3]; mouse plasma, IP, 5 mg/kg): 2.04% | AUC % Ext ([3]; mouse plasma, IV, 1 mg/kg): 6.49% | bioavailability ([3]; mouse, in vivo, ip, 5 mg/kg, mouse plasma, IP, 5 mg/kg, read-out: F (relative bioavailability)): ~99% | C0 ([3]; mouse, in vivo, 1 mg/kg, mouse plasma, IV, 1 mg/kg, read-out: C0 (back-calculated)): 19100 ng/mL | level at 10 min ([3]; mouse, plasma, mean, IP 5 mg/kg, 10 minutes postdose, read-out: Mean plasma concentration): 16000 ng/mL | level at 0.5 h ([3]; mouse, plasma, mean, IP 5 mg/kg, 30 minutes postdose, read-out: Mean plasma concentration): 13200 ng/mL | level at 1 h ([3]; mouse, plasma, mean, IP 5 mg/kg, 60 minutes postdose, read-out: Mean plasma concentration): 15400 ng/mL | level at 2 h ([3]; mouse, plasma, mean, IP 5 mg/kg, 120 minutes postdose, read-out: Mean plasma concentration): 2790 ng/mL | level at 4 h ([3]; mouse, plasma, mean, IP 5 mg/kg, 240 minutes postdose, read-out: Mean plasma concentration): 355 ng/mL | level at 6 h ([3]; mouse, plasma, mean, IP 5 mg/kg, 360 minutes postdose, read-out: Mean plasma concentration): 130 ng/mL | level at 0.05 h ([3]; mouse, plasma, mean, IV 1 mg/kg, 3 minutes postdose, read-out: Mean plasma concentration): 14100 ng/mL | level at 10 min ([3]; mouse, plasma, mean, IV 1 mg/kg, 10 minutes postdose, read-out: Mean plasma concentration): 6960 ng/mL | level at 0.5 h ([3]; mouse, plasma, mean, IV 1 mg/kg, 30 minutes postdose, read-out: Mean plasma concentration): 2600 ng/mL | level at 1 h ([3]; mouse, plasma, mean, IV 1 mg/kg, 60 minutes postdose, read-out: Mean plasma concentration): 2030 ng/mL | level at 2 h ([3]; mouse, plasma, mean, IV 1 mg/kg, 120 minutes postdose, read-out: Mean plasma concentration): 488 ng/mL
Molecule: CC[C@@H](C)[C@@H](NC(=O)[C@@H](CCC(=O)O)NC(=O)[C@@H](CCC(=O)O)NC(=O)[C@H](N)Cc1cn(CCCC[C@H](NC(=O)[C@@H](Cc2c[nH]c3ccccc23)NC(=O)[C@@H](CCC(=O)O)NC(=O)[C@@H](CCCNC(=N)N)NC(=O)[C@@H](Cc2ccccc2)NC(=O)[C@@H](CC(C)C)NC(=O)[C@H](N)Cc2cn(CCCC[C@H](NC(=O)[C@H](CC(C)C)NC(=O)[C@H](CCCNC(=N)N)NC(=O)[C@H](CCC(=O)O)NC(=O)[C@H](Cc3ccccc3)NC(=O)[C@@H]3CSSC[C@H](NC(=O)[C@H](CC(N)=O)NC(=O)[C@@H]4CCCN4C(=O)[C@H](CCC(=O)O)NC(=O)[C@@H](NC(C)=O)C(C)C)C(=O)N[C@@H](CC(=O)O)C(=O)N[C@@H]([C@@H](C)CC)C(=O)N[C@@H](Cc4c[nH]cn4)C(=O)N[C@@H](C(C)C)C(=O)N[C@@H](CCSC)C(=O)N[C@@H](Cc4c[nH]c5ccccc45)C(=O)N[C@@H](CCC(=O)O)C(=O)N[C@@H](Cc4c[nH]c5ccccc45)C(=O)N[C@@H](CCC(=O)O)C(=O)N3)C(=O)O)nn2)C(=O)O)nn1)C(=O)N[C@H](CCCNC(=N)N)C(=O)N[C@H](CC(=O)O)C(N)=O [VEGF-PCC] (I: Ac-VEPNCDIHVMWEWECFERL[Lys(N3)]-OH / II: H-[dPra][dL][dF][dR][dE][dW][Lys(N3)]-OH / III: H-[dPra][dE][dE][dI][dR][dD]-NH2; disulfide I:5-I:15; triazole I:20-II:1, II:7-III:1)
Plasma concentration ([3]; IP 5 mg/kg, 10 minutes postdose, listed as IN-VT-1001, 5 mg/kg): 17500 ng/mL and 17000 ng/mL and 13400 ng/mL | Plasma concentration ([3]; IP 5 mg/kg, 60 minutes postdose, listed as IN-VT-1001, 5 mg/kg): 10800 ng/mL and 23900 ng/mL and 11500 ng/mL | Plasma concentration ([3]; IV 1 mg/kg, 3 minutes postdose, listed as IN-VT-1001, 1 mg/kg): 14200 ng/mL and 16200 ng/mL and 12000 ng/mL | C0 ([3]; mouse, in vivo, 1 mg/kg, assuming IV dose 1 mg/kg, body weight 33 g, blood volume approximately 1.7 mL, read-out: theoretical C0): ~19400 ng/mL

Molecule: X-VEPNCDIHVMWEWECFERL-Az4 ({code X}-VEPNCDIHVMWEWECFERL-Az4; cysteine pairing not given here; reading uncertain) [anchor, reference compound]
blocking of receptor binding at the concentrations tested [4]: Neither the anchor nor Biligand 2 blocked receptor binding

Reference: patent US8710180B2, “VEGF-specific capture agents, compositions, and methods of using and making” (Indi Molecular, Inc., priority 2011, dated 2014)
